In one series the target is T1, Cytochrome P450 1A1 (Homo sapiens, UniProt P04798).
T1 sequence (P04798 whole entry): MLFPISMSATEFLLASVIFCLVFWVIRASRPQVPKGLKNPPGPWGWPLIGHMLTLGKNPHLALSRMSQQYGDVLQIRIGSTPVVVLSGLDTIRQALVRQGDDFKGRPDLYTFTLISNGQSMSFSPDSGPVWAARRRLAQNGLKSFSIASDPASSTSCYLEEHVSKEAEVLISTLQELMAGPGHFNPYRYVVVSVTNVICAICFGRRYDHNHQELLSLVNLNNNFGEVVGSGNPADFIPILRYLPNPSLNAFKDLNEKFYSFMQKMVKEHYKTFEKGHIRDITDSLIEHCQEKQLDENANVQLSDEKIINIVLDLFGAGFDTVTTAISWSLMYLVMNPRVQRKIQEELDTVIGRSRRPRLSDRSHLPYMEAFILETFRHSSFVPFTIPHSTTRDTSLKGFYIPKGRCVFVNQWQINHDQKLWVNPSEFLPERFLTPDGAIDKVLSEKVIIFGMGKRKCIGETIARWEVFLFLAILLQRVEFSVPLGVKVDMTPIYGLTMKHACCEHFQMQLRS
Description: Inhibition of CYP1A1 (unknown origin). The series is classed as ADME.
What is called IC50 is the concentration at which inhibition is half-maximal. Lower therefore signals higher potency. In turn, `Brc1ccc(/N=N/Nc2ccc(Br)cc2)cc1` yielded a concentration for half-maximal inhibition (IC50) of 3000 nM.

`CC(=O)c1ccc(/N=N/Nc2ccc(C(C)=O)cc2)cc1` yielded an IC50 of 4000 nM.

Compound `c1ccc(N=NNc2ccccc2)cc1` returned an IC50 of 8000 nM.

The next series concerns the target T2, Cytochrome P450 1B1 (Homo sapiens, UniProt Q16678).
T2 sequence (Q16678 whole entry): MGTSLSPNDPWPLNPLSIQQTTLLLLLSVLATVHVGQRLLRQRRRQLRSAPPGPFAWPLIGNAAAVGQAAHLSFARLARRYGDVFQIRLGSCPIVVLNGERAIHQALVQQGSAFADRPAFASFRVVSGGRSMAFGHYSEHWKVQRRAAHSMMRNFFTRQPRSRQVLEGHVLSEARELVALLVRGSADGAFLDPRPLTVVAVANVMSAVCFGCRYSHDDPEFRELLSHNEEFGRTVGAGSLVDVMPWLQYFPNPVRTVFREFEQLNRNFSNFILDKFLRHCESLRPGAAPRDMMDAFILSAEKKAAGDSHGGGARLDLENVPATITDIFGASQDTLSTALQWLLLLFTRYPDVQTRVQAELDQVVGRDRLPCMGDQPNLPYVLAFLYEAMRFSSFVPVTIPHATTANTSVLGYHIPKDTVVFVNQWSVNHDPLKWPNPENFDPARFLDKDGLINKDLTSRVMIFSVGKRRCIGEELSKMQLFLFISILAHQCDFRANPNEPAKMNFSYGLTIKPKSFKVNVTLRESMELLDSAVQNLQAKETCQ
Description: Inhibition of CYP1B1 (unknown origin). It counts as ADME.
The compound `N#Cc1ccc(/N=N/Nc2ccc(C#N)cc2)cc1` registered a 50% inhibitory concentration (IC50) of 740 nM.

Regarding `Brc1ccc(/N=N/Nc2ccc(Br)cc2)cc1`, the midpoint of inhibition, the IC50, lay at 51 nM.

In the case of `CC(=O)c1ccc(/N=N/Nc2ccc(C(C)=O)cc2)cc1`, the IC50 turned out to be 590 nM.

Take `c1ccc(N=NNc2ccccc2)cc1`: the IC50 turned out to be 2000 nM.

The target of another series is T3, {'v': 'CYP1B1', 'o': 'p', 'q': 'Inhibition of CYP1B1 (unknown origin)'} (Homo sapiens, UniProt Q16678).
T3 sequence (Q16678 whole entry): T2 sequence (Q16678 whole entry)
The series can be described thus: Inhibition of CYP1B1 (unknown origin) assessed as remaining enzyme activity relative to control. It counts as ADME.
Regarding `N#Cc1ccc(/N=N/Nc2ccc(C#N)cc2)cc1`, the activity came out at 8%.

Take `Brc1ccc(/N=N/Nc2ccc(Br)cc2)cc1`: the activity is 9%.

On to `CC(=O)c1ccc(/N=N/Nc2ccc(C(C)=O)cc2)cc1`, for which the activity amounted to 19%.

`c1ccc(N=NNc2ccccc2)cc1`: the activity was 4%.

The next series has as its target T4, {'v': 'CYP1A1', 'o': 'p', 'q': 'Inhibition of CYP1A1 (unknown origin)'} (Homo sapiens, UniProt P04798).
T4 sequence (P04798 whole entry): T1 sequence (P04798 whole entry)
The series can be described thus: Inhibition of CYP1A1 (unknown origin) assessed as remaining enzyme activity relative to control. It counts as ADME.
In the case of `N#Cc1ccc(/N=N/Nc2ccc(C#N)cc2)cc1`, the activity was 96%.

Regarding `Brc1ccc(/N=N/Nc2ccc(Br)cc2)cc1`, the activity came to 21%.

On to `CC(=O)c1ccc(/N=N/Nc2ccc(C(C)=O)cc2)cc1`, for which the activity came to 33%.

As for `c1ccc(N=NNc2ccccc2)cc1`, the activity is 9%.

Source of the values: ChEMBL document CHEMBL5131450, “Diaryl triazenes inhibit cytochrome P450 1A1 and 1B1 more strongly than aryl morpholino triazenes” (Bioorg Med Chem Lett, 2022).
